{
  "source": "patent US10907168B2",
  "about": "“Jasmonic acid pathway activator” (MEDICAGO INC., priority 2015, dated 2021)",
  "format_in_all_cases": "in vivo, Nicotiana benthamiana",
  "key": {"[1]": {"tested_on": "cathepsin L-like C1A Cys proteases", "assay": "Protease assay in leaf crude extracts, Z-Phe-Arg-MCA substrate", "settings": "three tested doses (0.5, 1, 2 mM), seven days post-treatment, ANOVA P>0.05", "experimental": "(§1) Forty-two day-old N. benthamiana plants grown in greenhouse were used for the experiments. Each plant was sprayed evenly with 50 ml of 0.5 mM, 1 mM or 2 mM MeJA in water containing 0.1% (v/v) Triton X-100 (Sigma-Aldrich, Mississauga ON, Canada), or with 50 ml of 1 mM arachidonic acid (Girard et al., 2007) in the same solvent, and transferred for seven days in a Conviron growth chamber (Conviron, Winnipeg MB, Canada). Plants sprayed with 50 ml of 0.1% (v/v) Triton X-100 in water were used in parallel as negative controls to avoid confounding effects due to experimental conditions. […]\n(§2) Whole leaf proteins were extracted from three 1-cm^2 leaf discs in 400 μl of ice-cold 50 mM Tris-HCl, pH 7.5, containing 150 mM NaCl, by disrupting the leaf samples with tungsten carbide beads (Qiagen, Mississauga ON, Canada) in a Mini-Beadbeater apparatus (BioSpec, Bartlesville Okla., USA). […] RuBisCO small subunit was detected using polyclonal IgG raised in rabbit against a synthetic small subunit peptide (Agrisera, Vännäs, Sweden) and alkaline phosphatase-conjugated goat anti-rabbit IgG as secondary antibodies (Sigma-Aldrich). RuBisCO large subunit was detected using polyclonal IgG raised in hen against a synthetic large subunit peptide (Agrisera) and alkaline phosphatase-conjugated goat anti-chicken IgG as secondary antibodies (Sigma-Aldrich). […]"}, "[2]": {"tested_on": "trypsin-like S1 Ser proteases", "assay": "Protease assay in leaf crude extracts, Z-Arg-MCA substrate", "settings": "0.5 and 1 mM doses, seven days post-treatment", "experimental": "as §1, §2"}, "[3]": {"tested_on": "cathepsin D/E-like A1 Asp proteases", "assay": "Protease assay in leaf crude extracts, MOCAc substrate", "settings": "seven days post-treatment"}},
  "data": [
    {"smiles": "CC/C=C\\C[C@H]1C(=O)CC[C@@H]1CC(=O)OC", "note": "[MeJA, methyl jasmonate]", "values": [
      {"measurement": "cathepsin L-like activity", "setting": "[1]", "result": "no impact"},
      {"measurement": "trypsin-like activity", "setting": "[2]", "result": "minimal or no increase in activity"},
      {"measurement": "cathepsin D/E-like activity", "setting": "[3]; agroinfiltrated leaves", "result": "also observed in agroinfiltrated leaves"},
      {"measurement": "cathepsin D/E-like activity", "setting": "[3]; uninfiltrated plants, P<0.001", "result": "dose-dependent decrease"}
    ]}
  ]
}
